Results from patent publication US12702135B2, “Mitigation of ammonia, odor and greenhouse gases” (Syddansk Universitet, priority 2019, dated 2026).
Several values for one entry are separate records, joined by “and”; a condition that tells them apart may be missing. Equal values may be shown once.

Columns and labels:
[1] = system: pig manure slurry; experiment: total ammoniacal nitrogen (Kjeldahl) in fresh pig manure slurry
Protocol: (§1) Total ammoniacal nitrogen (TAN) was measured in pig manure slurry using the Kjeldahl method. This method consists of adding 32% NaOH to the manure slurry sample in order to turn all NH4^+ in the sample to NH3. The sample is then heated in a closed system causing the NH3 to evaporate into a trap containing H3BO3 forming NH4[B(OH)4]. The remaining acid is then back-titrated with dilute HCl to give the concentration.
(§2) The pig manure slurry was made fresh on the day of measurement by mixing 10 g of feces with 30 ml of urine. Vials of approximately 4.5 ml of manure slurry were prepared. To each vial 0.5 ml of appropriate amounts of inhibitors were added. Controls were vials of 4.5 ml manure slurry with 0.5 ml H2O. After mixing inhibitors and pig manure slurry the vials were sealed and incubated at 25° C. with shaking for 5 h. After incubation, the ureolysis reaction was rapidly quenched by addition of 8 ml 32% NaOH before the sample was transferred to the Kjeldahl instrument for measurements.
as §1, with “the manure sample in” for “the manure slurry sample in”
as §2, with “of either 30 mM TA and 10 mM NaF or 50 mM TA and 10 mM NaF was added. Vials containing 0.5 ml” for “of appropriate amounts”, “of either 51 mg/ml MTA (equal to 30 mM TA on a mass basis) or 85 mg/ml MTA (equal to 50 mM TA on a mass basis) with 10 mM TA and 10 mM NaF” for “of inhibitors”, “were also prepared.” for “were added.”, “ml H2O or 10 mM NaF.” for “ml H2O.”
The pig manure slurry was made fresh on the day of measurement by mixing 10 g of feces with 30 ml of urine. Manure separation was simulated by mixing 10 g of feces with 60 ml of urine for a ratio of 1:6 w:V.
For the “normal” ratio or unseparated manure slurry (1:3) 4.5 ml manure was placed in vials. Then 0.5 ml of TA (50 mM) and NaF (10 mM) were added to the manure slurry. For the separated manure slurry (1:6) 4.5 ml were mixed with 0.5 ml of TA (25 mM) and NaF (10 mM).
Controls were vials of 4.5 ml manure slurry with 0.5 ml H2O at either 1:3 or 1:6 w:V ratios of feces:urine. After mixing inhibitors and pig manure slurry the vials were sealed and incubated at 25° C. with shaking for 5 h. After incubation, the ureolysis reaction was rapidly quenched by addition of 8 ml 32% NaOH before the sample was transferred to the Kjeldahl instrument for measurements.
Tannic acid (TA), sodium fluoride (NaF), chlorogenic acid (CA), lignosulfonic acid (LA), lignin (L), chitosan low molecular weight (CLMW), NaOH, HCl and H3BO3 were purchased from Sigma-Aldrich. The mixed tannins (75% tannins) used in this study (VINOFERM TANNOROUGE) were purchased from Brouwland. The product contains tannins from chestnut. The green tea extract was purchased from Slimming Labs (Groeningen, Netherlands) and consists of 90% polyphenols of which 40% are epigallocatechin gallate. Total ammoniacal nitrogen (TAN) was measured in pig manure slurry using the Kjeldahl method as described in example 2 and example 7. The various compounds were tested as described for MTA in example 7 using appropriate concentrations.
Initial screenings were done in duplicate and the results are given as the average of the two measurements with no standard deviation (SD). […]

[2] = system: Klebsiella pneumoniae; experiment: pH-based urease activity assay, pure K. pneumoniae culture in M9U minimal medium; assay type: cell-based, Klebsiella pneumoniae subsp. pneumoniae; conditions: for Reduction in ureolytic activity: pure K. pneumonia culture
Protocol: (§3) The urease stock was stored at −20° C.
All M9U components except glucose, urea, FeCl2, ZnSO4, and vitamins were mixed, the pH adjusted to 6.8 and the medium was autoclaved. Glucose, urea, FeCl2, ZnSO4, and BME Vitamin solution were sterile-filtered and added aseptically after autoclaving. Urea was added within 24 h before the medium was used.
(§4) The assay consists of a buffered urea solution containing the pH indicator phenol red and the inhibitor to be tested. […] Each compound was screened at three concentrations (10×, 100× and 1000× dilutions of the stock) in triplicate against K. pneumoniae and purified JBU. To this solution ureolytic bacteria or urease is added and the solution is incubated in a plate reader which every 15 minutes measure the absorbance at 557 nm and 630 nm (A557 and A630). Thus, inhibitor and bacteria/urease was not pre-incubated. For microbial urease activity experiments, K. pneumoniae and E. coli were grown overnight in the respective growth media. […] To each well 80 μl bacterial suspension, 100 μl growth media, and 20 μl inhibitor solution was added. Increase in absorbance at 557 nm reflects increasing pH (until saturation of the indicator at pH 8.2) and increase in absorbance at 630 nm reflects bacterial growth (optical density). In the case of ureolytic bacteria or enzymes in urea solution the increase in pH can be ascribed to the production of alkaline NH3. […] In the bacterial assay inhibitors were evaluated based on three parameters: maximal or final pH increase, onset of pH increase and rate of pH increase. The relative maximal pH increase was determined as pHmax=A557-A630. The onset of the pH increase was defined as the point where the ureolytic production of NH3 overcame the buffer capacity resulting in a colour change of the phenol red indicator measured as an absorbance increase at 557 nm. […] For each inhibitor the influence on the bacterial growth was also evaluated by identifying the end of the lag phase (onset of exponential growth), the growth rate and the maximal OD630.

[3] = target: T1, jack bean urease (Canavalia ensiformis, UniProt P07374); experiment: cell-free urease activity assay (pH-based); assay type: biochemical
T1 construct: purchased Sigma-Aldrich
Protocol: as §3, §4
In urease inhibition assays 5 μl enzyme solution, 175 μl growth media, and 20 μl inhibitor solution were added.

[4] = system: pig manure slurry; experiment: headspace ammonia emissions from pig manure slurry (PTR-MS); conditions: Tannic acid 10 mM; cumulated headspace emission, 22-24° C.
Protocol: Ammonia emissions were measured in headspace experiments at ambient temperature (22-24° C.). Pig urine (30 ml) and 10 g of frozen pig feces were thawed and added to each of nine 100 mL reactors and mixed with tannic acid and sodium fluoride in different concentrations. Tannic acid and sodium fluoride was purchased from Sigma-Aldrich. A flow of 0.5 L±10% air/min was continuously applied to the headspace of each reactor with mass flow controllers (Bronkhorst EL-FLOW, Ruurlo, Netherlands). The air flow carried the emitted ammonia from the pig manure slurry in the reactors to a proton transfer reaction mass spectrometer (PTR-MS) (Ionicon Analytik, Innsbruck, Austria) for quantification. A PEEK valve (Bio-Chem Valve Inc., Boonton, NJ, USA) was used to switch between the nine reactors every 12 min. The PTR-MS was operated at a reduced electric field of 142 Townsend (2.15 mbar and 75° C. in the drift tube). Every 24 h, 3 ml of pig urine and 1 g of pig feces was thawed and supplemented to the reactors. Tannic acid and sodium fluoride was also supplemented every 24 h to maintain a constant inhibitor concentration in the manure. For acidification treatment, the manure slurry was acidified with H2SO4 to pH 5.5 every 24 h. The gas emissions were monitored continuously for 12 days. […]

[5] = weak acidity due to the numerous phenol groups; cited from earlier work
[6] = system: 12 days old pig manure slurry; experiment: methane production in anaerobic inoculum flasks (GC-FID); conditions: 10 mM TA alone, 3 weeks
Protocol: This was done by transferring the TA-NaF treated manure slurry used in example 3 to 100 mL inoculum flasks on day 12. The manure slurry was weighed before inoculation and the headspace was flushed with helium (Linde Group) prior to encapsulation. Gas from the headspace of the inoculum flasks was sampled into 6 mL vacuum sealed exetainer vials (Labco Limited, Lampeter, UK) every week the following three weeks and stored for later CH4 analysis on a GC-FID. After sampling from the inoculum flasks, the pressure in the headspace was equalized with a needle.

T1 sequence (P07374 whole entry, looked up): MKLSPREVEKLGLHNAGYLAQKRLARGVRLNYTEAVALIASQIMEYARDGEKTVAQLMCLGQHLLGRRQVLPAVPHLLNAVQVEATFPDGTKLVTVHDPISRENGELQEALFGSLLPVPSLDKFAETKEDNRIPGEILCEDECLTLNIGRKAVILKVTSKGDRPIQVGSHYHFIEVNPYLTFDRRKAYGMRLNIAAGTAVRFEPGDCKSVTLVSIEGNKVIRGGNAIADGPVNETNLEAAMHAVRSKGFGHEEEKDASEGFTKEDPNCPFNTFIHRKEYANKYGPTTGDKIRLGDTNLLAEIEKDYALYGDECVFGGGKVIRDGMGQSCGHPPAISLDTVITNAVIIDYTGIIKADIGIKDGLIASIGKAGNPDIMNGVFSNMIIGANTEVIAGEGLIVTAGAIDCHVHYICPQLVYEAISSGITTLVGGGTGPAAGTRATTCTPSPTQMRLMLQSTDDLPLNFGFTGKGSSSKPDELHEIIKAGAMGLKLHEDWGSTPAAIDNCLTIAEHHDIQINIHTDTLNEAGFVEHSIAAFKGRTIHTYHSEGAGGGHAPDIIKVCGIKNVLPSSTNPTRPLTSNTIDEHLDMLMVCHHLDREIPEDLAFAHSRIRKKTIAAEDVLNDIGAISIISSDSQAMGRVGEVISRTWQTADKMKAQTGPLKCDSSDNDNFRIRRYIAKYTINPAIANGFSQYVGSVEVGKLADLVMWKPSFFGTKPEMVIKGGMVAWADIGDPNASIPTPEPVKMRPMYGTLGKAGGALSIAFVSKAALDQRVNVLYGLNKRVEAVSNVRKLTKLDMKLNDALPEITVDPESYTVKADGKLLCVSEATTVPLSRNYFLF

With `CC(=O)NO` [AHA, acetohydroxamic acid] the “Reduction in ammonia production (Mean)” value ([1]; AHA 0.5 mM, pig manure slurry) was 14% and 14 ± 2.3%, the “Reduction in ammonia production (Mean)” value ([1]; AHA 1 mM, pig manure slurry) was 24 ± 3.4% and the “Reduction in ureolytic activity” value ([2]; AHA 0.2 mM) was 14 ± 6%.
For `O=C(/C=C/c1ccc(O)c(O)c1)O[C@@H]1C[C@](O)(C(=O)O)C[C@@H](O)[C@H]1O` [CA, chlorogenic acid], the “Reduction in ammonia production (Mean ± SD)” value (from here on “Reduction … (Mean ± SD)”) ([1]; CA 5 mM (2.3 mg/ml), pig manure slurry, duplicate, no SD) was 6%.
With `NCCS` [Cysteamine] the “Reduction in ammonia production” value ([1]; Cysteamine 1 mM, pig manure slurry, 25° C., 5 h) was 25%.
In the case of `O=C(O)CNCC(=O)O` [Iminodiacetic acid], the “Reduction in ammonia production” value ([1]; Iminodiacetic acid 0.8 mM, pig manure slurry, 25° C., 5 h) is reported as 19%.
For `O=C1C=CC(=O)N1c1ccccc1` [N-phenylmaleimide], the “Reduction in ammonia production” value ([1]; N-phenylmaleimide 3.9 mM, pig manure slurry, 25° C., 5 h) was 59%.
For `[F-].[Na+]` [NaF, sodium fluoride], the “reduction in initial rate of pH change” value ([3]; 1.0 mM) was 89.4±1.0%, the “reduction of pH change” value ([3]; 1.0 mM) was 80.6±3.0% and the “Reduction in concentration of NH3” value ([1]; 1 mM NaF, pig manure slurry, 25° C., 5 h (Example 7)) was 17.7 ± 4%. The “Reduction … (Mean ± SD)” value ([1]; NaF 1 mM, pig manure slurry (Example 10)) was 9 ± 1.0%, the “Reduction in ammonia production (Mean)” value ([1]; NaF 1 mM, pig manure slurry (Example 11)) was 9 ± 1.0% and the “Reduction in ammonia production” value ([1]; NaF 1 mM, pig manure slurry, 25° C., 5 h (Example 2)) was 24%. For the same molecule, the “Reduction in ammonia production” value ([1]; in solution, NaF 1 mM, pig manure slurry, 25° C., 5 h (Example 3)) was 8.6%, the inhibition of ureolysis ([2]; 0.3 mM fluoride alone) was 14.7% and the “ureolytic activity (pH change) relative to the uninhibited control” value ([2]; 1.0 mM) was 0. For the same molecule, the “reduction of pH change (FIG. 5)” value ([2]; NaF 0.3 mM) was 12-15%.
In the case of `O=C(OC[C@H]1O[C@@H](OC(=O)c2cc(O)c(O)c(OC(=O)c3cc(O)c(O)c(O)c3)c2)[C@H](OC(=O)c2cc(O)c(O)c(OC(=O)c3cc(O)c(O)c(O)c3)c2)[C@@H](OC(=O)c2cc(O)c(O)c(OC(=O)c3cc(O)c(O)c(O)c3)c2)[C@@H]1OC(=O)c1cc(O)c(O)c(OC(=O)c2cc(O)c(O)c(O)c2)c1)c1cc(O)c(O)c(OC(=O)c2cc(O)c(O)c(O)c2)c1` [Tannic acid, tannic acid], the “pH change (reduced to)” value ([3]; 0.1 mM) is given as 0, the “Reduction in ammonia emissions, 12 days” value [4] is given as 88.4% and the pKa [5] is given as “around 6”. For the same molecule, the “Reduction in ammonia production (Mean)” value ([1]; TA 3 mM, pig manure slurry (Example 11)) was 0 ± 4%, the “Reduction … (Mean ± SD)” value ([1]; TA 5 mM (8.5 mg/ml), pig manure slurry (Example 10)) was 18 ± 1.3% and the “Reduction in ammonia production (Mean)” value ([1]; TA 5 mM, pig manure slurry (Example 11)) was 18 ± 1.3%. For the same molecule, the “Reduction in ammonia production” value ([1]; Tannic acid 10 mM, pig manure slurry, 25° C., 5 h (Example 2)) was 17.6%^, the “Reduction in ammonia production” value ([1]; in solution, Tannic acid 5 mM, pig manure slurry, 25° C., 5 h (Example 3)) was 17.6% and the “Reduction in ammonia production” value ([1]; in solution, Tannic acid 10 mM, pig manure slurry, 25° C., 5 h (Example 3)) was 35.2%. The “methane production, % of the uninhibited control (FIG. 3B)” value [6] was 0.01%, the inhibition at 1000 µM ([2]; Klebsiella pneumoniae, 1.0 mM, read-out: reduction of ureolytic activity (pH change) relative to uninhibited control) was 21.3 ± 1.3% and the “Reduction in ureolytic activity” value ([2]; TA 0.05 mM, listed as TA) was 16% and 16 ± 5%. The “Reduction in ureolytic activity” value ([2]; TA 0.1 mM) was 9.4 ± 3%, the “Reduction in ureolytic activity” value ([2]; TA 0.2 mM) was 3.9 ± 6% and the “inhibition of ureolytic activity” value ([2]; tannic acid 0-0.8 mM alone) was 0-12%. The “ureolytic pH change compared to the uninhibited control (FIG. 5)” value ([2]; tannic acid alone up to 0.8 mM) was “does not reduce the pH change significantly”.
